Experimental data reported in ChEMBL document CHEMBL1201862, “PubChem BioAssay data set” (2004).
Values joined by “and” are separate entries in the source; they are usually repeats but may differ in a detail not shown here. Identical values can stand only once.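 Cells were grown in 96-well plates and exposed to each compound for 48 hours at five concentrations; endpoints were interpolated linearly between bracketing concentrations, or set to the highest concentration if not reached. Here, GI50 denotes the concentration required for 50% inhibition of growth.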 Active and inactive are the calls of the source. Rule as the data show it: active = GI50 up to about 1.1 µM and inactive = higher.

Experiments:
Experiment in all cases: NCI-60 cell line screen, 48 h
786-0 = tested on: 786-0
A498 = tested on: A498
A549 = tested on: A549
CCRF-CEM = tested on: CCRF-CEM
HCT-116 = tested on: HCT-116
HL-60 = tested on: HL-60
HOP-62 = tested on: HOP-62
Hs-578T = tested on: Hs-578T
KM12 = tested on: KM12
LOX IMVI = tested on: LOX IMVI
M14 = tested on: M14
NCI-H226 = tested on: NCI-H226
NCI-H23 = tested on: NCI-H23
NCI-H522 = tested on: NCI-H522
SF-268 = tested on: SF-268
SF-295 = tested on: SF-295
SNB-19 = tested on: SNB-19
IGROV-1 = tested on: IGROV-1
Malme-3M = tested on: Malme-3M

Measured: GI50

COc1cc(/C=C/C(=O)N[C@@H]2C(=O)N3[C@@H]2SC(C)(C)[C@@H]3C(=O)O)ccc1O
inactive: 786-0 > 100 µM | A498 > 100 µM | A549 > 100 µM | CCRF-CEM > 100 µM | HCT-116 > 100 µM | HL-60 > 100 µM | HOP-62 > 100 µM | Hs-578T > 100 µM | KM12 > 100 µM | LOX IMVI 75 µM | M14 > 100 µM | NCI-H226 > 100 µM | NCI-H23 > 100 µM | NCI-H522 > 100 µM | SF-268 > 100 µM | SF-295 > 100 µM | SNB-19 > 100 µM

COC(=O)c1c(O)ccc2c1c1c(n2CCc2ccc(OC)c(OC)c2)C(=O)c2ccccc2C1=O
inactive: 786-0 13.8 µM | A498 15.9 µM | A549 14.5 µM | CCRF-CEM 9.79 µM | HCT-116 12.7 µM | HL-60 23.4 µM | HOP-62 16 µM | Hs-578T 10.9 µM | IGROV-1 14.6 µM | KM12 13 µM | M14 14.2 µM | Malme-3M 14 µM | NCI-H226 19.6 µM | NCI-H23 15.6 µM | NCI-H522 2.69 µM | SF-268 17.5 µM | SF-295 19.6 µM | SNB-19 22.5 µM

O=C(c1ccccc1)N1C(=O)N(c2ccccc2)C(=N/c2ccccc2)/C1=N\c1ccccc1
inactive: 786-0 > 100 µM | A498 > 100 µM | A549 42.2 µM | CCRF-CEM 50.7 µM | HCT-116 47.9 µM | HL-60 > 100 µM | HOP-62 52.4 µM | Hs-578T 20.3 µM | IGROV-1 > 100 µM | KM12 13.5 µM | LOX IMVI 9.25 µM | Malme-3M 69 µM | NCI-H226 18 µM | NCI-H23 > 100 µM | NCI-H522 11 µM | SF-268 > 100 µM | SF-295 > 100 µM | SNB-19 > 100 µM

COCOC1C=CCCCC2=CC(C)=C(CC1)O2 (stereo not given)
inactive: 786-0 > 100 µM | A498 > 100 µM | A549 > 100 µM | CCRF-CEM 74.6 µM | HCT-116 > 100 µM | HOP-62 > 100 µM | Hs-578T > 100 µM | IGROV-1 > 100 µM | KM12 > 100 µM | LOX IMVI > 100 µM | M14 > 100 µM | Malme-3M > 100 µM | NCI-H226 > 100 µM | NCI-H23 > 100 µM | NCI-H522 > 100 µM | SF-268 > 100 µM | SF-295 > 100 µM | SNB-19 > 100 µM

Cc1ccc2c(c1)S(=O)(=O)c1ccc3ccccc3c1N2
inactive: 786-0 > 100 µM | A498 > 100 µM | A549 > 100 µM | CCRF-CEM > 100 µM | HCT-116 > 100 µM | HL-60 > 100 µM | HOP-62 > 100 µM | Hs-578T > 100 µM | IGROV-1 > 100 µM | KM12 > 100 µM | LOX IMVI > 100 µM | M14 > 100 µM | NCI-H226 > 100 µM | NCI-H23 > 100 µM | NCI-H522 > 100 µM | SF-268 > 100 µM | SF-295 > 100 µM | SNB-19 > 100 µM

O=C(O)C12C3CCC(O3)C1(C(=O)O)C1CCC2O1 (stereo not given)
inactive: 786-0 > 100 µM | A498 > 100 µM | A549 > 100 µM | CCRF-CEM > 100 µM | HCT-116 > 100 µM | HL-60 > 100 µM | HOP-62 > 100 µM | Hs-578T > 100 µM and 98.2 µM | IGROV-1 > 100 µM | KM12 > 100 µM | LOX IMVI > 100 µM | Malme-3M > 100 µM | NCI-H226 > 100 µM | NCI-H23 > 100 µM | NCI-H522 > 100 µM | SF-268 > 100 µM | SF-295 > 100 µM | SNB-19 > 100 µM

COc1cccc(C2c3cc4c(cc3OC(N3CCCCC3)C2C)OCO4)c1OC (stereo not given)
inactive: 786-0 72.1 µM | A498 9.42 µM | A549 5.14 µM | CCRF-CEM 3.46 µM | HCT-116 2.72 µM | HOP-62 17.9 µM | Hs-578T 4.31 µM | IGROV-1 5.16 µM | KM12 6.32 µM | LOX IMVI 4.85 µM | M14 12.7 µM | Malme-3M 11.9 µM | NCI-H226 3.93 µM | NCI-H23 14.3 µM | NCI-H522 5.21 µM | SF-268 8.2 µM | SF-295 4.27 µM | SNB-19 14.8 µM
